From patent US20060263444A1, “Antimicrobial composition” (priority 2005, published 2006)
Where “and” joins values, the source holds several entries; their conditions need not be identical. Equal values may be shown once. Read-outs that look alike come from different tables or passages of the source.

Tests used:
E. coli [1] = test: Viable plate count after 24 hr incubation in trypticase soy broth culture; assay type: cell-based
Procedure: (§1) Sequential dilutions of the above two stock solutions were then prepared also in sterile saline. A portion of 0.05 ml of each dilution was added to 0.95 ml of bacterial culture (trypticase soy broth containing 10^6 CFU/ml). […] The test cultures were incubated at 37° C. for 24 hr, the total viable bacteria were numerated by plate count on Trypticase® soy agar (BBL) containing inactivating agent. The plates were incubated at 37° C. for 48 hr and reported as colony forming unit/ml (CFU/ml).

S. aureus [2] = assay type: cell-based
Procedure: as §1

S. aureus [3] = test: Zone of inhibition assay of coated sutures; assay type: cell-based, Staphylococcus aureus; details: coated 2-0 polyglactin 910 suture; 0.5% in coating solution; 37° C. 48 hr
Procedure: (§2) The coating solutions were made by dissolving a L(−) lactide/glycolide copolymer containing 65 mole % lactide and 35 mole % glycolide (4.5%) and calcium stearate (4.5%) in ethyl acetate. […] The sutures were hand coated by dipping into the coating solution containing antimicrobial composition and then air dried at room temperature for 8 hr. […] A Petri dish was inoculated with about 10^5 cfu/suture and a portion of 20 ml of TSA tempered at 47° C. was added into the Petri dish. The inoculum was mixed thoroughly with the medium and the suture was placed in the middle of the Petri dish. The inoculated Petri dishes were incubated at 37° C. for 48 hr and then the zone of inhibition was measured with a digital caliper.
(§3) The zone of inhibition assay was performed against S. aureus and E. coli over a two-day period.

E. coli [4] = test: Zone of inhibition assay of coated sutures; assay type: cell-based; details: coated suture; 0.5% in coating solution; 37° C. 48 hr
Procedure: as §2, §3

P. aeruginosa = test: Viable plate count after 24 hr incubation in trypticase soy broth culture; assay type: cell-based
Procedure: as §1

C. albicans [5] = test: as above; assay type: cell-based
Procedure: as §1

E. faecium = test: as above; assay type: cell-based
Procedure: as §1

C. albicans [6] = test: Zone of inhibition assay of coated sutures; assay type: cell-based; details: coated suture; 0.5% in coating solution; 37° C. 48 hr
[7] = rats; cited from earlier work
[8] = animals and humans; cited from earlier work
[9] = test system: Staphylococcus aureus, E. coli and C. albicans; test: Zone of inhibition assay of coated sutures, summary in text; assay type: cell-based; details: coated suture
Procedure: as §2, §3

[10] = single agent 10 ppm, 37° C. 24 hr

Row | SMILES | CFU/ml E. coli (E. coli [1]; Table 2, single agent 10 ppm) | CFU/ml E. coli (E. coli [1]; Table 2, single agent 20 ppm) | CFU/ml S. aureus (S. aureus [2]; Table 2, single agent 10 ppm) | CFU/ml S. aureus (S. aureus [2]; Table 2, single agent 20 ppm) | Zone of inhibition(mm) S. aureus (S. aureus [3]) | Zone of inhibition(mm) E. coli (E. coli [4]) | reduction of viable bacteria compared to the control, P. aeruginosa (P. aeruginosa; alone at 10 ppm) | CFU/ml P. aeruginosa (P. aeruginosa; [10]) | reduction of viable bacteria compared to the control, C. albicans (C. albicans [5]; alone at 10 ppm) | CFU/ml C. albicans (C. albicans [5]; [10]) | reduction of viable bacteria compared to the control, E. faecium (E. faecium; alone at 10 ppm) | CFU/ml E. faecium (E. faecium; [10]) | reduction of viable bacteria compared to the control, E. coli (E. coli [1]) | CFU/ml E. coli (E. coli [1]; monohydrochloride) | Zone of inhibition(mm) C. albicans (C. albicans [6]) | absorption and metabolism [7] | toxicological finding [8] | zone of inhibition [9] | CFU/ml S. aureus (S. aureus [2])
1 | O=[N+]([O-])[O-].[Ag+] [AgNO3, silver nitrate] | 1.2 × 10^9 CFU/ml | 1.0 × 10^8 CFU/ml | 9.3 × 10^8 CFU/ml | 2.2 × 10^8 CFU/ml |  |  |  |  |  |  |  |  |  |  |  |  |  |  | 
2 | CCCCCCCCCCCC(=O)N[C@@H](CCCN=C(N)N)C(=O)OCC.Cl [LAE, ethyl ester of the lauramide of the arginine monohydrochloride] |  |  |  |  | 0 mm | 0 mm | no inhibition | 1.0 × 10^9 CFU/ml | < 2 log | 6.0 × 10^7 CFU/ml | < 2 log | 5.0 × 10^7 CFU/ml | no inhibition | 1.0 × 10^9 CFU/ml and 1.1 × 10^9 CFU/ml | 0 mm | fast absorption and metabolism into naturally-occurring amino acids and the lauric acid | completely harmless to animals and humans | no zones of inhibition | 6.4 × 10^8 CFU/ml
